What was measured:
hPNPLA9 = target: T1, hPNPLA9 (Homo sapiens, UniProt O60733); test: hPNPLA9 off-target inhibition; type: biochemical; conditions: read-out: hPNPLA9 off-target inhibition [% inhibition at 100 μM]
T1 construct: made in house; host or cells: Expi cells (lysate)
T1 sequence (O60733 1-806): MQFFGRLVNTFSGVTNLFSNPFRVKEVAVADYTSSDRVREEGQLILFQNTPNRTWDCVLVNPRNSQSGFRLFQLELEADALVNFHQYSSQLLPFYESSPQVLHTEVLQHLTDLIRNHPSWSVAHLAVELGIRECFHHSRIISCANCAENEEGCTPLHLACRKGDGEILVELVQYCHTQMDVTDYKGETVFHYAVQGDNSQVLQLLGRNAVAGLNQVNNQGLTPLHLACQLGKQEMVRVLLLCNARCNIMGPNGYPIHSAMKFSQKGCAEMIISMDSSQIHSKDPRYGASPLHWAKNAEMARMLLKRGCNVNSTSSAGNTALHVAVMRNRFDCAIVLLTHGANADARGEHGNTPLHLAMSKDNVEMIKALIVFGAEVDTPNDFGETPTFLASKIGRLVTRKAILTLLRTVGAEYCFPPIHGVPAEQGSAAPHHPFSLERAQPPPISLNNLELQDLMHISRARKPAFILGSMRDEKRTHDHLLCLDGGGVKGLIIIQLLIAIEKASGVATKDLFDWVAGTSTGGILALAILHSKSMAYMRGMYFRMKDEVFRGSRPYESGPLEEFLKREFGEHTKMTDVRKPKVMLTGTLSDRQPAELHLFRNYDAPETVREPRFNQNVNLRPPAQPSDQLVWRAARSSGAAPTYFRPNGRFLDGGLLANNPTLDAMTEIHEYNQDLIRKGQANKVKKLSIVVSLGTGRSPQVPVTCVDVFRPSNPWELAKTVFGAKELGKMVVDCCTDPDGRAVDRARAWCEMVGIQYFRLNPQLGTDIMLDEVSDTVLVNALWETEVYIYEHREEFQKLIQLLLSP
Description: Expi lysates expressing hPNPLA9 were treated with 100 μM Inhibitors and incubated with 1 mM C8 monoacylglycerol substrate (containing 5 mM CHAPS, 50 mM NaPh buffer ph7.4, 0.15 M NaCl) for 40 min. Glycerol release was determined via Free glycerol reagent (Sigma Aldrich). Samples measured in triplicates, […]

hPNPLA6 = target: T2, hPNPLA6 (Homo sapiens, UniProt Q8IY17); test: hPNPLA6 off-target inhibition; type: biochemical; conditions: read-out: hPNPLA6 off-target inhibition [% inhibition at 100 μM]
T2 construct: made in house; host or cells: Expi cells (lysate)
T2 sequence (Q8IY17 1-1375): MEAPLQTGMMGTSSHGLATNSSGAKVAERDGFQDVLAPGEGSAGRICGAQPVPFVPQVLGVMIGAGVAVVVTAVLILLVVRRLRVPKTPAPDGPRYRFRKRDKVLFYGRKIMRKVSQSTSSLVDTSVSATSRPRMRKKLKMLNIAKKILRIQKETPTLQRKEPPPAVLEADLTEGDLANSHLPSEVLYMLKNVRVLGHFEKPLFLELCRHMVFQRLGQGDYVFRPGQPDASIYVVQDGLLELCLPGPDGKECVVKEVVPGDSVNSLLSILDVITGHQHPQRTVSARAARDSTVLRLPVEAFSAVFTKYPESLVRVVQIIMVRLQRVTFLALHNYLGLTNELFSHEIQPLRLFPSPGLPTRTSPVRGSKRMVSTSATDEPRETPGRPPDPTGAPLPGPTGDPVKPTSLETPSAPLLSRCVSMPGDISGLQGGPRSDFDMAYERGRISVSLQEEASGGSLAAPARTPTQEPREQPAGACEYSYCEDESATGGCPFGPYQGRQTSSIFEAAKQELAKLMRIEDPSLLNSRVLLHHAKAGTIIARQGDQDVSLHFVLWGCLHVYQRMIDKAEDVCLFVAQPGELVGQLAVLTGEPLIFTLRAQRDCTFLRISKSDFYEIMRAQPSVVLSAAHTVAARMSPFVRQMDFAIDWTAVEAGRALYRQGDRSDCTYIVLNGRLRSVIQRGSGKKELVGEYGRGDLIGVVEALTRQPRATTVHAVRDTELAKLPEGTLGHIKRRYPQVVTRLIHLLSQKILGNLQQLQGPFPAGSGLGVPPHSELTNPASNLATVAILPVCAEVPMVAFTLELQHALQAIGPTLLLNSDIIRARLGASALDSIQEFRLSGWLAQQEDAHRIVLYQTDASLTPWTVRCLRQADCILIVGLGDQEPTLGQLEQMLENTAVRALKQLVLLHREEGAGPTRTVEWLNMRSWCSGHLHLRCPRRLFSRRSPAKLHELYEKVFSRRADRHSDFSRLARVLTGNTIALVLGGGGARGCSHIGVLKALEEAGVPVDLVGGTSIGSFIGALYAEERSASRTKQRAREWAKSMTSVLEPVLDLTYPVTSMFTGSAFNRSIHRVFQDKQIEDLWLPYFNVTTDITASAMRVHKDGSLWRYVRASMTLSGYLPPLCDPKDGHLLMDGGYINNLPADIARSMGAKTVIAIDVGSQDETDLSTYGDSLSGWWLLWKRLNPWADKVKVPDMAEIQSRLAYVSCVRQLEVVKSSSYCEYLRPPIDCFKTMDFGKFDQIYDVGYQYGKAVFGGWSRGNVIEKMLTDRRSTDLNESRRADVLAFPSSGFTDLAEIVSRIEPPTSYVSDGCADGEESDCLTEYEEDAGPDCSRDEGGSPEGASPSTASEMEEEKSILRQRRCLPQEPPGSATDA
Description: Expi lysates expressing hPNPLA6 were treated with 100 μM Inhibitors and incubated with 1 mM C8 monoacylglycerol substrate (containing 5 mM CHAPS, 50 mM NaPh buffer ph7.4, 0.15 M NaCl) for 40 min, Glycerol release was determined via Free glycerol reagent (Sigma Aldrich). Samples measured in triplicates.

| Structure (SMILES) | inhibition at 100 µM (hPNPLA9) | inhibition at 100 µM (hPNPLA6) |
| --- | --- | --- |
| CCOc1ccc(-c2nc(C(=O)OCc3cccs3)cs2)cc1 [Example 152, Thiophen-2-ylmethyl 2-(4-ethoxyphenyl)thiazole-4-carboxylate] | 0% | 0% |
| CC#CCOC(=O)c1csc(-c2ccc(OCC)cc2)n1 [Example 209, But-2-yn-1-yl 2-(4-ethoxyphenyl)thiazole-4-carboxylate] | 0% | 0% |
| CCOc1ccc(-c2cccc(C(=O)OCc3ccco3)n2)cc1 [Example 190, Furan-2-ylmethyl 6-(4-ethoxyphenyl)picolinate] | 0% | 0% |
| CCOc1ccc(-c2cc(OC)cc(C(=O)OC(C)C)n2)cc1 [Example 35] | 0% | – |
| C#C[C@H](C)OC(=O)c1csc(-c2ccc(OCC)cc2)n1 [Example 210, (S)-But-3-yn-2-yl 2-(4-ethoxyphenyl)thiazole-4-carboxylate] | 0% | 0% |
| CCOc1ccc(-c2nc(C(=O)OCc3ccc(Cl)s3)cs2)cc1 [Example 223, (5-Chlorothiophen-2-yl)methyl 2-(4-ethoxyphenyl)thiazole-4-carboxylate] | 0% | 0% |
| CCOc1ccc(-c2cccc(C(=O)OCc3cccs3)n2)cc1 [Example 189, Thiophen-2-ylmethyl 6-(4-ethoxyphenyl)picolinate] | 0% | 0% |
| CCOc1ccc(-c2nc(C(=O)OCc3ccoc3)cs2)cc1 [Example 216, Furan-3-ylmethyl 2-(4-ethoxyphenyl)thiazole-4-carboxylate] | 0% | 0% |
| COc1cc(C(=O)OC(C)C)nc(-c2ccc(OC(C)C)cc2)c1 [Example 201, Isopropyl 6-(4-isopropoxyphenyl)-4-methoxypicolinate] | 0% | 0% |
| C#C[C@@H](C)OC(=O)c1csc(-c2ccc(OCC)cc2)n1 [Example 211, (R)-But-3-yn-2-yl 2-(4-ethoxyphenyl)thiazole-4-carboxylate] | 0% | 0% |
| CCCCOC(=O)c1csc(-c2ccc(OCC)cc2)n1 [Example 212, Butyl 2-(4-ethoxyphenyl)thiazole-4-carboxylate] | 0% | 0% |
| CCOc1ccc(-c2nc(C(=O)OCc3ccc(Br)s3)cs2)cc1 [Example 224, (5-Bromothiophen-2-yl)methyl 2-(4-ethoxyphenyl)thiazole-4-carboxylate] | 0% | 0% |
| CCOc1ccc(-c2nc(C(=O)OCc3ccsc3)cs2)cc1 [Example 215, Thiophen-3-ylmethyl 2-(4-ethoxyphenyl)thiazole-4-carboxylate] | 0% | 0% |
